Measurements: ChEMBL document CHEMBL1137188, “Substituted 6-phenyl-pyridin-2-ylamines: selective and potent inhibitors of neuronal nitric oxide synthase” (Bioorg Med Chem Lett, 2004)

Tests used:
[1] = target: T1, Nitric oxide synthase 3 (Homo sapiens, UniProt P29474); assay: Inhibitory activity against endothelial nitric oxide synthase in human
T1 sequence (P29474 whole entry): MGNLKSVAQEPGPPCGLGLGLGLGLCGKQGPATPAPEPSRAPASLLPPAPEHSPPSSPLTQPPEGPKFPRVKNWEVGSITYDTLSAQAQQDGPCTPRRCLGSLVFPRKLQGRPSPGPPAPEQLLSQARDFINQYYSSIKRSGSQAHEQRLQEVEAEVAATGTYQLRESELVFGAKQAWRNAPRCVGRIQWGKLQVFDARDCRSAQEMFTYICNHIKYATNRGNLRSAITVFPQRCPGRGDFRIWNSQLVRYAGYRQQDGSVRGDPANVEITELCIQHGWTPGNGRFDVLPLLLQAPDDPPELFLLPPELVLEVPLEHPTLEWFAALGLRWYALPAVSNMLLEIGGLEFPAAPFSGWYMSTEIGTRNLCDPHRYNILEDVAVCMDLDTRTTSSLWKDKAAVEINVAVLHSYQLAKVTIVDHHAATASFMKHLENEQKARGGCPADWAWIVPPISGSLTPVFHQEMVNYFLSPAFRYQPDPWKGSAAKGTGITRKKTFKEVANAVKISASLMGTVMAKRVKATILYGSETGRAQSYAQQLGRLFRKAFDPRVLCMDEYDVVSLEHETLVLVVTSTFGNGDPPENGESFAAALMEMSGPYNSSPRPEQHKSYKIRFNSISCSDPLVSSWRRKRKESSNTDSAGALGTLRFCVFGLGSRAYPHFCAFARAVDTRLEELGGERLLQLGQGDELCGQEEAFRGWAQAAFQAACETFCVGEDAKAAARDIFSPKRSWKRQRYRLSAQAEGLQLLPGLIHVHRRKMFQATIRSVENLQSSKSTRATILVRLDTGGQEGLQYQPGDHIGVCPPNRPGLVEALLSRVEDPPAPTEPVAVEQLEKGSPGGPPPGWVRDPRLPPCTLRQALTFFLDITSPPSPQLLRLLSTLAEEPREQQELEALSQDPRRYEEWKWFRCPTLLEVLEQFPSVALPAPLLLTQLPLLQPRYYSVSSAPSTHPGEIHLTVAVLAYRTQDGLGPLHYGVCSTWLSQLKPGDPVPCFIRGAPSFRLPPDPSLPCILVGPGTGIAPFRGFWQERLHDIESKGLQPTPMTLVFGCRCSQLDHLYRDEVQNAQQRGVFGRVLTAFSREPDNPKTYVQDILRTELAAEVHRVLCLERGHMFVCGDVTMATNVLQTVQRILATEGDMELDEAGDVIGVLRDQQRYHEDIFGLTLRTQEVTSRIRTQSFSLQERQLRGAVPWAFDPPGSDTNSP

[2] = target: Nitric oxide synthase 1 (Homo sapiens, UniProt P29475); assay: Inhibitory activity against neuronal nitric oxide synthase in human
Nitric oxide synthase 1, sequence (P29475 whole entry): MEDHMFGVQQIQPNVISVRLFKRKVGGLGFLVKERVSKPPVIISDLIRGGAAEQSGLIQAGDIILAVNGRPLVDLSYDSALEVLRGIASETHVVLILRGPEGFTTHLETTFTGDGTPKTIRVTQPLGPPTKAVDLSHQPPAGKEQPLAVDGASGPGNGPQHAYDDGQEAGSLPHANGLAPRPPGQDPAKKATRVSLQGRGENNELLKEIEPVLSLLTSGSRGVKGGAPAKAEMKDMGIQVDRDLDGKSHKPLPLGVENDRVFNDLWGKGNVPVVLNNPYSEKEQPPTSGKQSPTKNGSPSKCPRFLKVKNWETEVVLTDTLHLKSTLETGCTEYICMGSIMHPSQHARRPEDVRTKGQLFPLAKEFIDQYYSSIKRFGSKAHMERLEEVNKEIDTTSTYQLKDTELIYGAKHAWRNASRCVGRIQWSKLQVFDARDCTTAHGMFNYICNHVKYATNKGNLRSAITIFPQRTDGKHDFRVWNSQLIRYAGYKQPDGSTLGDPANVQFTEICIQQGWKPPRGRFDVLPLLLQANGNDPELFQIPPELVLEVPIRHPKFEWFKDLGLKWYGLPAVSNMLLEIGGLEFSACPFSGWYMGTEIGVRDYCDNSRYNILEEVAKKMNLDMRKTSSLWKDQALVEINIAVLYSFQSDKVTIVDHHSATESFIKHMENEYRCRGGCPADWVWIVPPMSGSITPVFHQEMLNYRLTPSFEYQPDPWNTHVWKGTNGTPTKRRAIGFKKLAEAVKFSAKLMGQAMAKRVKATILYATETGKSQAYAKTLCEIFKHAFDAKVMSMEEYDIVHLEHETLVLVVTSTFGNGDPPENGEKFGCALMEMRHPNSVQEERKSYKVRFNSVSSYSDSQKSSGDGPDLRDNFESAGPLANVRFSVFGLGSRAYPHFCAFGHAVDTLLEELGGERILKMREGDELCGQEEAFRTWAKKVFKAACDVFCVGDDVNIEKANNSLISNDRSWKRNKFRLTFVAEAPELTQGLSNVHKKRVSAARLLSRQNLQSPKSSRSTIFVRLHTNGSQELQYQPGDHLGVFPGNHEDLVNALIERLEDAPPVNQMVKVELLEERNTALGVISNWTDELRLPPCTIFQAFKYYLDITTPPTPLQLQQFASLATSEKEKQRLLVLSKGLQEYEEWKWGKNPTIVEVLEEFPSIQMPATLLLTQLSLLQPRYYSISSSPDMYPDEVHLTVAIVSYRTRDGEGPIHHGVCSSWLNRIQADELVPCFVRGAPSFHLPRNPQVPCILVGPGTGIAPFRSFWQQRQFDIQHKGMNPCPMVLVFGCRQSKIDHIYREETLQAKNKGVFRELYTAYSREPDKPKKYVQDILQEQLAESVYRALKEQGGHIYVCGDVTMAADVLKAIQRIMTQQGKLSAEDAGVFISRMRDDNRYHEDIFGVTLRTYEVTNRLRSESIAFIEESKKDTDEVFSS

With `CCc1cc(-c2cccc(N)n2)c(OC)cc1CN(C)C` the IC50 [1] was 8830 nM.

For `CCc1cc(-c2cccc(N)n2)c(OC)cc1CCCN(C)C`, the IC50 [1] was over 7700 nM and the IC50 [2] was 75 nM.

`COc1cc(-c2cccc(N)n2)c(OC)cc1CCCN(C)C` showed an IC50 [1] of over 32000 nM and an IC50 [2] of 200 nM.

Molecule `CCc1cc(-c2cccc(N)n2)c(OC)cc1CCN(C)C` has an IC50 [1] of 16500 nM and an IC50 [2] of 75 nM.

With `CCc1cc(-c2cccc(N)n2)c(OC)cc1OCCN(C)C` the IC50 [1] was 3710 nM and the IC50 [2] was 58 nM.

`COc1cc(-c2cccc(N)n2)c(OC)cc1OCCN(C)C` gave an IC50 [1] of 21900 nM and an IC50 [2] of 112 nM.

For `COc1cc(-c2cccc(N)n2)c(OC)cc1CCN(C)C`, the IC50 [1] was over 32000 nM and the IC50 [2] was 235 nM.

For `COc1cc(-c2cccc(N)n2)c(OC)cc1CN(C)C`, the IC50 [1] was over 32000 nM and the IC50 [2] was 810 nM.
